Laboratory results published in ChEMBL document CHEMBL1201862, “PubChem BioAssay data set” (2004).
Activity calls are given as the source filed them.

Key:
[1] = target: T1, Polyadenylate-binding protein 1 (Homo sapiens, UniProt P11940); assay: MLLE binding blockers, Cy5 peptide tracer – biochemical, fluorescence polarization, Cy5-PAM2 peptide, secondary, miRNA deadenylation inhibitor project, dose response (AID 602260); format: functional; details: read-out: IC50_Mean
[2] = target: T1, Polyadenylate-binding protein 1; assay: MLLE domain peptide-binding blockers, IC50 – biochemical, fluorescence polarization, FITC-PAM2 peptide, dose response (AID 602259); format: functional; details: read-out: IC50_Mean
[3] = target: T2, Fatty acid synthase (Homo sapiens, UniProt P49327); assay: inhibition of human FAS-TE enzyme activity – biochemical, endpoint fluorescence intensity, uHTS hits, dose response (AID 624327); format: functional;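 note: fluorescence from hydrolysis of an O-methyl fluorescein acyl ester substrate by the enzyme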
T2 sequence (P49327 whole entry): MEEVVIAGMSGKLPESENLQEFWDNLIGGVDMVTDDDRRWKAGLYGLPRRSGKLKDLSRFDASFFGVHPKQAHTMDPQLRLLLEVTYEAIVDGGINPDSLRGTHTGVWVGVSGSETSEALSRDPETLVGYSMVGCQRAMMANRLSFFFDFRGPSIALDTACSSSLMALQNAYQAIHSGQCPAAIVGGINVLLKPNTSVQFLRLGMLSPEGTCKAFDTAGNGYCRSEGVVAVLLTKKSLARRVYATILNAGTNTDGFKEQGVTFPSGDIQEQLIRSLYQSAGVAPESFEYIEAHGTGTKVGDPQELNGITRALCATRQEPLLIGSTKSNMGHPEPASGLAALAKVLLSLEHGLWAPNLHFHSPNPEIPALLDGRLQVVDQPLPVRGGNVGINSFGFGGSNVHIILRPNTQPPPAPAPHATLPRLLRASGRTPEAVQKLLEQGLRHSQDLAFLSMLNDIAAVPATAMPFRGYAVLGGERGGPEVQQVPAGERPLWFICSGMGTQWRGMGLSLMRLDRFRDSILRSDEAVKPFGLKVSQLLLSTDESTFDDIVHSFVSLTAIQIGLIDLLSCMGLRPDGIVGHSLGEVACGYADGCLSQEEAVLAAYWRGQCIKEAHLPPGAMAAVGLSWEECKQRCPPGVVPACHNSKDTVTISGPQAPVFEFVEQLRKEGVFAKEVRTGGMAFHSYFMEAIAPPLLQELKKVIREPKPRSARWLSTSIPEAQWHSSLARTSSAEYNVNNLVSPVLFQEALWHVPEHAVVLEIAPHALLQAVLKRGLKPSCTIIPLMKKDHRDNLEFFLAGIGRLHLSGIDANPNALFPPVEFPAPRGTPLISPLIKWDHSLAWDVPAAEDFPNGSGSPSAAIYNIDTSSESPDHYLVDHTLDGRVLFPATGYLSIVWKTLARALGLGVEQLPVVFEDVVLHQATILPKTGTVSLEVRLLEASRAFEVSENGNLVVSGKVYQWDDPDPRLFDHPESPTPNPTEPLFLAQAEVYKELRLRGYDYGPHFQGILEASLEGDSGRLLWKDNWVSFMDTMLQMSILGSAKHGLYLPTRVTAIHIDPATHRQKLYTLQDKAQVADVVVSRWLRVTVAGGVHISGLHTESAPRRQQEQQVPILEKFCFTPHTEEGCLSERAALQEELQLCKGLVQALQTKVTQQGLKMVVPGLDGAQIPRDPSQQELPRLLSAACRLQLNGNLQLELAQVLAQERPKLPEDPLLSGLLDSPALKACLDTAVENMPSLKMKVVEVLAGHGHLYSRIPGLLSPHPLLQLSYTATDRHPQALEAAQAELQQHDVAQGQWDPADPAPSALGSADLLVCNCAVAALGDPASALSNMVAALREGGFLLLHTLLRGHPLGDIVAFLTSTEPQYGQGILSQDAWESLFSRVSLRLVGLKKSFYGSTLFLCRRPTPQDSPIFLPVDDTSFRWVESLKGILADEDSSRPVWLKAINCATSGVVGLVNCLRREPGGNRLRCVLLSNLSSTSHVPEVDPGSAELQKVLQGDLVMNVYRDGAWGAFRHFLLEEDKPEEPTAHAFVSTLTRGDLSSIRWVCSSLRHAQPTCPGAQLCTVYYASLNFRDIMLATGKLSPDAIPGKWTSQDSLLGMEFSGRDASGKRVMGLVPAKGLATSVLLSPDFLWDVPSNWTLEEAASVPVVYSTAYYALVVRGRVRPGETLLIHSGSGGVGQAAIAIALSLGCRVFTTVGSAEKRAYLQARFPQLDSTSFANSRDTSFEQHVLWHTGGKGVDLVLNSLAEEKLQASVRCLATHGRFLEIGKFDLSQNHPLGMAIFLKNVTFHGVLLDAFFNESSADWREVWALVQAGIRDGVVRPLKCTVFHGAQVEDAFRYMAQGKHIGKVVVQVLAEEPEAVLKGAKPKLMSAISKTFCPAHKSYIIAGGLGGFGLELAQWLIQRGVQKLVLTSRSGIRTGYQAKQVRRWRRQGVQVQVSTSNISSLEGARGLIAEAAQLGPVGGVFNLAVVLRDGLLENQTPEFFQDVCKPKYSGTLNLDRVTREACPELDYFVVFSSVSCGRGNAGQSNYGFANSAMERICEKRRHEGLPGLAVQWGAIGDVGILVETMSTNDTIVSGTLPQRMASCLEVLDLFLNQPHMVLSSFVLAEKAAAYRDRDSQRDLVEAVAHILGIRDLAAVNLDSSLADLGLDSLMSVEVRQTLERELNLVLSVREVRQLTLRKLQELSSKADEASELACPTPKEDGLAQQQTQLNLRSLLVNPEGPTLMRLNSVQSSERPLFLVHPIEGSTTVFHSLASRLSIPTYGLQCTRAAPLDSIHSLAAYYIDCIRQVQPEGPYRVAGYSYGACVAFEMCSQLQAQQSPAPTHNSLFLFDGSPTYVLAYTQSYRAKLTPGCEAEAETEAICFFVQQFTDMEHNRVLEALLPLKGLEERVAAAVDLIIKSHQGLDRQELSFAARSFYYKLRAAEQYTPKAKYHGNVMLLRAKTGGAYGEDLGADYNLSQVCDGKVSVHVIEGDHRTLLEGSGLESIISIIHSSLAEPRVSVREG

[4] = target: T2, Fatty acid synthase; assay: inhibition of human FAS-TE enzyme activity – biochemical, kinetic fluorescence intensity, dose response (AID 624326); format: functional;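 note: rate of fluorescence rise from hydrolysis of a fluorogenic O-methyl fluorescein ester substrate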
[5] = system: H4; assay: Luminescence Cell-Based Dose Response HTS to Identify Activators of 5'UTR Stem-Loop Driven Prion Protein mRNA Translation in H4 Neuroglioblastoma Cells. [Related pubchem assays: 1829 (Project Summary), 1814 (Primary HTS)]; format: functional; details: Homo sapiens
[6] = Luminescence Cell-Based Dose Confirmation HTS to Identify Activators of 5'UTR Stem-Loop Driven Alpha-Synuclein mRNA Translation in H4 Neuroglioblastoma Cells. [Related pubchem assays: 1829 (Project Summary), 1814 (Primary HTS)]; format: functional
[7] = Luminescence Cell-Based Dose Response HTS to Identify Activators of Luciferase Translation or Activity in H4 […] Cells. [Related pubchem assays: 1829 (Project Summary), 1814 (Primary HTS)]; format: functional
[8] = loss of viability in HepG2 cells – cell-based, CellTiter-Glo, cherry-picked, cytotoxicity control for Shn3 inhibitor project, dose response (AID 624134); format: functional
[9] = reduction of Shn3 3'UTR-driven luciferase in osteoblasts – cell-based, Clone20 osteoblasts, firefly luciferase, cherry-picked, dose response (AID 624132); format: functional;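 note: firefly luciferase luminescence from reporter carrying the Shn3 3'UTR in osteoblasts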
[10] = non-specific 3'UTR reporter inhibition in Clone20-Shn3RL – cell-based, Renilla luciferase, cherry-picked, counter-screen for Shn3 inhibitor project, dose response (AID 624133); format: functional
[11] = cells; format: functional, cell-based
[12] = NIH-3T3 fibroblast cytotoxicity, dose response, cytotoxicity control, cell-based, fluorescence, Alamar Blue, secondary assay (AID 2327); format: functional;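 note: NIH-3T3 mouse fibroblasts cultured with fluconazole at 8 µg/mL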
[13] = fluconazole-exposed Candida albicans growth modulators – fluorescence, retest, confirmation (AID 2467); format: functional, cell-based
[14] = cells; format: functional, cell-based; remark: listed apart in the source
[15] = target: T3, Protein RecA (Mycobacterium tuberculosis, UniProt P9WHJ3); assay: Fluorescence Cell-Free Homogeneous Dose Retest to Identify Inhibitors of RecA-Intein Splicing Activity. [Related pubchem assays (depositor defined):AID2097, AID2223, AID489010, AID492950]; format: functional
T3 sequence (P9WHJ3 whole entry): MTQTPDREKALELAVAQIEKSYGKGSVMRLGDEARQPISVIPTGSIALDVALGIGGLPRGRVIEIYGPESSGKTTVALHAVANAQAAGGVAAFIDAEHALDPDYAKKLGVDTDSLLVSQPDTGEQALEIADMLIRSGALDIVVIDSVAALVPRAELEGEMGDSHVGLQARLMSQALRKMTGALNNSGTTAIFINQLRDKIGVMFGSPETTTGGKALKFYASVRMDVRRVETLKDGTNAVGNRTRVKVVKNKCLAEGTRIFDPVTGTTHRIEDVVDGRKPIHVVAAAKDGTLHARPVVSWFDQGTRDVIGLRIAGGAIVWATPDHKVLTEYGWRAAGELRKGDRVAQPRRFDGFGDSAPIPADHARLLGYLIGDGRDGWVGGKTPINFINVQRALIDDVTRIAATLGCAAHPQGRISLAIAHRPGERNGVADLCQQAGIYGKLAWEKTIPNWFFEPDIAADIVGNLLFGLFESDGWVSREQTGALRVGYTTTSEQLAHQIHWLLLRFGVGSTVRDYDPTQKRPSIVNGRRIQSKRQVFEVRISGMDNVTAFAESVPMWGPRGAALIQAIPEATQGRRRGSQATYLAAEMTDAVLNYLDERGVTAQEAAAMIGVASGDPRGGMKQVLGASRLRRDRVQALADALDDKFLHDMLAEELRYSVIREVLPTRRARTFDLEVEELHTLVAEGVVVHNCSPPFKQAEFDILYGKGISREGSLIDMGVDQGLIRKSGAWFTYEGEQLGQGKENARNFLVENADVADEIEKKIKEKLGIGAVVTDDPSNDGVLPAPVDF

[16] = target: T4, Replicative DNA helicase DnaB (Mycobacterium tuberculosis, UniProt P9WMR3); assay: DnaB intein splicing inhibitors, dose response, biochemical, cell-free fluorescence (AID 449749); format: functional
T4 sequence (P9WMR3 whole entry): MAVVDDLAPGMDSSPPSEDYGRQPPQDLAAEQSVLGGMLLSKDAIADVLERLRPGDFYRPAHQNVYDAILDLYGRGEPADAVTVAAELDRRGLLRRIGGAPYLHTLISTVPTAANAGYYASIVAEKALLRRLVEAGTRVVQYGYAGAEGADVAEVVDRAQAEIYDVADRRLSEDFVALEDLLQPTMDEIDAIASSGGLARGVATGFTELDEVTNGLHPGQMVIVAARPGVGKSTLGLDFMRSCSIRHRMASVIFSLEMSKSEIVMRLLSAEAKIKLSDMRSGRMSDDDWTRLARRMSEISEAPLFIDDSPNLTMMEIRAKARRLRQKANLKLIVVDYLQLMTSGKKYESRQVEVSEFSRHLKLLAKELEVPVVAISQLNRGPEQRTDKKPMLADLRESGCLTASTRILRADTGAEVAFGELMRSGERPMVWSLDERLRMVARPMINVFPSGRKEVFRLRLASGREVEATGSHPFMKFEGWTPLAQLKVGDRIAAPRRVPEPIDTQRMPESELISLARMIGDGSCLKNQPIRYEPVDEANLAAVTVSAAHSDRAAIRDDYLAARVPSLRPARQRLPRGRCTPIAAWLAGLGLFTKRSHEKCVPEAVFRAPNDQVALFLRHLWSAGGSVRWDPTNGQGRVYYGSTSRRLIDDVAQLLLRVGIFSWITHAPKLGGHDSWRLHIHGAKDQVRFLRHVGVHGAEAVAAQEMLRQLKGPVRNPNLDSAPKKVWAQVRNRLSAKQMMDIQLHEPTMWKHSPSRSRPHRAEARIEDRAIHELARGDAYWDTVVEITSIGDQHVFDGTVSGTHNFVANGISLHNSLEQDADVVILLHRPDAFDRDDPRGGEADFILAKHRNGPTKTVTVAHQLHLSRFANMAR

[17] = target: T5, Heat shock factor protein 1 (Mus musculus, UniProt P38532); assay: decrease of HSF1-responsive luciferase luminescence – cell-based, NIH3T3, dose retest, confirmation (AID 2382); format: functional;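 note: NIH3T3 fibroblasts with HSF1-driven luciferase reporter stressed by proteasome inhibitor MG132; luminescence from HSF1-driven luciferase expression after 8 hours of MG132 stress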
T5 sequence (P38532 whole entry): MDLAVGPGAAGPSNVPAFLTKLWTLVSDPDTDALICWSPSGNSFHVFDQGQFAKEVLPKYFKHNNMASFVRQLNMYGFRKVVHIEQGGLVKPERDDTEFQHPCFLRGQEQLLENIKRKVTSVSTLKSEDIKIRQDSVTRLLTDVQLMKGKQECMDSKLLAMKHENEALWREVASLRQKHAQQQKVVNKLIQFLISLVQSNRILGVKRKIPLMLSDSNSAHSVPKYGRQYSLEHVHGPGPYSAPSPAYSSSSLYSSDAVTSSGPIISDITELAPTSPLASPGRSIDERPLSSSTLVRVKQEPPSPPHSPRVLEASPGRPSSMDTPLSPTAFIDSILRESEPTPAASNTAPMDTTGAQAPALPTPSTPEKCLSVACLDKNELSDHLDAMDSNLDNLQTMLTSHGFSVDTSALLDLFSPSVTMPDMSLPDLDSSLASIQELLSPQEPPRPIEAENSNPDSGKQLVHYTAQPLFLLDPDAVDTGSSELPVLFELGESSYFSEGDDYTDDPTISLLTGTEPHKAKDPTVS

[18] = target: T6, Protein skinhead-1 (Caenorhabditis elegans, UniProt P34707); format: functional
T6 sequence (P34707 whole entry): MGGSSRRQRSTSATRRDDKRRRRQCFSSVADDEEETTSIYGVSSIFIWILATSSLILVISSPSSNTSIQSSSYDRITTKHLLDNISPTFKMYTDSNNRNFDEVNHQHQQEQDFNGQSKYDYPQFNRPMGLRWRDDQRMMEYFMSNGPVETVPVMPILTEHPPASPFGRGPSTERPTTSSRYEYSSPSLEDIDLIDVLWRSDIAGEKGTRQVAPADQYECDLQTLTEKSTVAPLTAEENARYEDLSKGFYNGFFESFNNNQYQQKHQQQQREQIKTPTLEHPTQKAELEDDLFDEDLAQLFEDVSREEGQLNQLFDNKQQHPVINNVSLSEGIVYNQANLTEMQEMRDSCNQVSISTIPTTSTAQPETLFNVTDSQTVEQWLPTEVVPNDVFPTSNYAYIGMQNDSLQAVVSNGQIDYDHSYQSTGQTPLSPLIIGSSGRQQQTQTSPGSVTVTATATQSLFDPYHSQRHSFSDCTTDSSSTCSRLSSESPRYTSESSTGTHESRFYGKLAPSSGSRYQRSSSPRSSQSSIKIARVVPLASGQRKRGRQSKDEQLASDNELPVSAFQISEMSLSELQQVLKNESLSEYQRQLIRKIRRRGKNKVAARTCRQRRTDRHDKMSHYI

T1 sequence (P11940 whole entry, the tested form may be a part): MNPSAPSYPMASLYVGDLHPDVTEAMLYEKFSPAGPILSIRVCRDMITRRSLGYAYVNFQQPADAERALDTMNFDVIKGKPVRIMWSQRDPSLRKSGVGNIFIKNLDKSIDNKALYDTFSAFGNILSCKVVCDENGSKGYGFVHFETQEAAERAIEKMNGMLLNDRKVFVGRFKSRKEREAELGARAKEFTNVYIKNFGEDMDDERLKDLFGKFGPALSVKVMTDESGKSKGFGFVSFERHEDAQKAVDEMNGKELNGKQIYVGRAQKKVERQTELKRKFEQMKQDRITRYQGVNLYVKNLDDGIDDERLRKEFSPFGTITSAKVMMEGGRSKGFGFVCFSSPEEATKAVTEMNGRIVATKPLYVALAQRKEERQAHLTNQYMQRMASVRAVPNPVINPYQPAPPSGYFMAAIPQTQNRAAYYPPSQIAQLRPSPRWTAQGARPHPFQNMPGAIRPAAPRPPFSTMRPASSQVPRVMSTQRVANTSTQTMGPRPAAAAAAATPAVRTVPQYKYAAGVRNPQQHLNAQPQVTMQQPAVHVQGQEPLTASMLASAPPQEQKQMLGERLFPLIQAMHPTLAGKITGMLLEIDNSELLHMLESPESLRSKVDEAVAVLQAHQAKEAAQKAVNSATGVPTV

NS(=O)(=O)c1ccc(NC(=S)NC(=O)c2ccc(-c3ccccc3)cc2)cc1
IC50 [1]: > 66 µM (inactive) | IC50 [2]: > 66 µM (inactive)

Cc1ccc(CN(CC(=O)NC2CCCC2)C(=O)CSc2nnc(COc3ccccc3)o2)cc1
IC50 [1]: > 66 µM (inactive) | IC50 [2]: > 66 µM (inactive)

O=C(COc1ncnc2ccccc12)Nc1ccc(Cl)c([N+](=O)[O-])c1
IC50 [3]: 8.42 µM (active) | IC50 [4]: 6.52 µM (active)

C1=C(CCNc2[nH]cnc3ncnc2-3)CCCC1
EC50 [5]: 40 µM (active) | EC50 [6]: 52.3 µM (active) | EC50 [7]: 20 µM (active)

Cc1ccc2c(c1)sc(C)[n+]2CCCS(=O)(=O)[O-]
IC50 [1]: > 66 µM (inactive) | IC50 [2]: > 66 µM (inactive)

NC(=NOC(=O)CCC1CCCC1)c1cccc([N+](=O)[O-])c1
IC50 [3]: 7.47 µM (active) | IC50 [4]: 4.54 µM (active)

CCCCNC(=O)CN1C(=O)c2cccc(N)c2C1=O
IC50 [1]: > 66 µM (inactive) | IC50 [2]: 31.6 µM (inactive)

C=C(C)CSc1ncc(-c2cccc(C(F)(F)F)c2)cn1
IC50 [3]: 13.3 µM (active) | IC50 [4]: 6.31 µM (active)

CCN(CC)S(=O)(=O)c1ccc(N(C)Cc2cccc(OC)c2OC)nc1
AC50 [8]: 57.1 µM (active)

Cc1nnsc1[S+]([O-])c1ccc(Br)cc1 (stereo not given)
EC50 [5]: > 120 µM (not active) | EC50 [6]: 21.9 µM (active) | EC50 [7]: 6.67 µM (active)

CC12CC3(C)CC(C)(C1)CC(C(=O)NC(=S)NC(C)(C)C)(C2)C3
IC50 [1]: > 66 µM (inactive) | IC50 [2]: > 66 µM (inactive)

Cc1ccc(CC(=O)Nc2ccncc2)cc1
AC50 [8]: 3.99 µM (active) | AC50 [9]: 2.39 µM (active) | AC50 [10]: 15.2 µM (active)

CCOC(=O)C1CCCN(C(=O)c2ccc3oc(CCc4ccccc4)nc3c2)C1 (stereo not given)
EC50 [11]: > 350 µM (not active) | EC50 [12]: > 150 µM (inactive) | EC50 [13]: > 38 µM (not active) | EC50 [14]: > 350 µM (not active)

O=[N+]([O-])c1cccc(-c2ccc(SCc3cccnc3)nn2)c1
IC50 [3]: 8.53 µM (active) | IC50 [4]: 8.99 µM (active)

Clc1ccc(Nc2nc3cccnc3s2)cc1
EC50 [6]: 0.341 µM (active) | EC50 [7]: 0.333 µM (active)

O=S(=O)(CCSc1nc2ccccc2s1)c1nc2ccccc2s1
EC50 [11]: > 350 µM (not active) | EC50 [15]: 2.22 µM (active) | AC50 [16]: 2.29 µM (active) | EC50 [14]: > 350 µM (not active)

CC(CC(=O)Nc1nnc(C(C)(C)C)s1)c1ccccc1 (stereo not given)
IC50 [1]: > 66 µM (inactive) | IC50 [2]: > 66 µM (inactive)

CC(C)(C)NC(=O)/C(=C\C=C\c1ccccc1)NC(=O)c1ccc([N+](=O)[O-])cc1
IC50 [3]: 0.491 µM (active) | IC50 [4]: 0.462 µM (active)

Cc1ccc(C2CCN(C(S)=NC(C)(C)C)C2)cc1 (stereo not given)
EC50 [5]: 62.4 µM (active) | EC50 [6]: 14.9 µM (active) | EC50 [17]: > 195 µM (not active) | EC50 [7]: 18.1 µM (active)

CC(=O)c1ccc(NC(S)=NCCc2ccc(S(N)(=O)=O)cc2)cc1
IC50 [1]: > 66 µM (inactive) | IC50 [2]: > 66 µM (inactive)

COC(=O)C1=C(C(=O)OC)[C@@H]2N(Cc3ccccc3)c3ccccc3[C@@]23C[C@@H](C(=O)OC)N(C(=O)c2ccc(Br)cc2)C3=N1
AC50 [8]: 34.8 µM (active) | AC50 [9]: 8.52 µM (active) | AC50 [10]: 23.7 µM (active)

COc1cccc(OCCn2cc(C(C)=O)c3ccccc32)c1
AC50 [8]: 7.55 µM (active) | AC50 [9]: 1.85 µM (active) | AC50 [10]: 7.82 µM (active)

O=C(Nc1ccccc1[N+](=O)[O-])c1ccc(S(=O)(=O)N2CCCC2)cc1
EC50 [5]: 14.6 µM (active) | EC50 [6]: 10.8 µM (active) | EC50 [7]: 9.21 µM (active)

O=C(NNS(=O)(=O)c1ccc([N+](=O)[O-])cc1)c1ccc2ccccc2c1O
IC50 [3]: 7.74 µM (active) | IC50 [4]: 6.99 µM (active)

c1ccc(P(c2ccccc2)c2ccccn2)cc1
IC50 [1]: > 66 µM (inactive) | IC50 [2]: > 66 µM (inactive)

COc1cc(C)c(NC(=O)COc2cccc3c2OC(C)(C)C3)cc1OC
AC50 [8]: 65.7 µM (active) | AC50 [9]: 7.06 µM (active) | AC50 [10]: 11.3 µM (active)

COc1cccc(C(=O)NCC(=O)N2CCC3(CC2)NCCc2[nH]cnc23)c1
IC50 [18]: > 100 µM (inactive)
